In publication PMC12155845, “Antimicrobial Activity of Copper(II), Nickel(II) and Zinc(II) Complexes with Semicarbazone and Thiosemicarbazone Ligands Derived from Substituted Salicylaldehydes” (Molecules, 2025):
“Also recorded” adds a separate entry of the source. Read-outs that look alike come from different tables or passages of the source.

Tests used:
[1] = test system: Staphylococcus aureus ATCC 25923; experiment: Microdilution antimicrobial assay (CLSI), S. aureus; format: cell-based; conditions: for Microbial growth, S. aureus (Table S1): ligand at 100 μM, mean values and standard deviations; for Percentage values of microbial growth, S. aureus: compound at 100 μM, mean and standard deviation, 24 h, relative to positive controls; for Antimicrobial activity against S. aureus (in words): up to 100 μM
Experimental: (§1) Reference strains of Staphylococcus aureus (ATCC 25923), Escherichia coli (ATCC 25922) and Candida albicans (ATCC 10231) were used in this study as model systems. These laboratory strains were purchased from the American Type Culture Collection (ATCC) (Manassas, VA, USA). […] The antimicrobial properties of the metal complexes were determined by a previously established microdilution method in agreement with the Clinical and Laboratory Standard Institute (CLSI) guidelines. […] The metal complexes were two-fold serially diluted and tested in the range of 100-0.19 μM. Positive controls (in regular media), negative controls (only compounds), solvent controls (DMSO dilutions) and the reference drugs were included in the tests. The plate was incubated at 37 °C for 24 h, and the OD630nm was measured.

[2] = test system: HEL 299 fibroblasts (ATCC-CCL-137); experiment: Cell viability and proliferation assay (WST8/CCK-8); format: cell-based, human; conditions: for Cell proliferation, HEL 299 (Table S1): ligand at 100 μM, mean values and standard deviations; for Percentage values of cell viability, HEL 299: compound at 100 μM, mean and standard deviation, relative to untreated controls
Experimental: HEL 299 cells, obtained from the American Type Culture Collection (ATCC-CCL-137), were selected to investigate the effect of the metal complexes on non-malignant human fibroblasts. Briefly, cells were cultured in Eagle’s Minimum Essential Medium (EMEM) supplemented with 10% fetal bovine serum (FBS), 100 U/mL penicillin and 100 µg/mL streptomycin at 37 °C with 5% CO2. For the biological assays, cells were grown in 96-well plates at 10^4 cells/well. After 24 h of incubation at 37 °C, the monolayer was treated with 100 µL of medium containing the 2-fold serial dilutions of the compounds in the range 100–0.19 µM. Cell viability was assessed by a colorimetric WST8-based assay according to the manufacturer’s instructions (CCK-8, Cell Counting Kit-8, Dojindo Molecular Technologies, Rockville, MD, USA) by measuring the OD at 450 nm. Data are expressed as the percentage of cell viability relative to the untreated controls. The CC50 was obtained on the corresponding dose–response curves generated as previously reported for IC50 values.

[3] = test system: Escherichia coli ATCC 25922; experiment: Microdilution antimicrobial assay (CLSI), E. coli; format: cell-based; conditions: for Microbial growth, E. coli (Table S1): ligand at 100 μM, mean values and standard deviations; for Percentage values of microbial growth, E. coli: mean and standard deviation, 24 h
Experimental: as §1

[4] = test system: Candida albicans ATCC 10231; experiment: Microdilution antifungal assay (CLSI), C. albicans; format: cell-based; conditions: for Percentage values of microbial growth, C. albicans: mean and standard deviation
Source text: Reference strains of Staphylococcus aureus (ATCC 25923), Escherichia coli (ATCC 25922) and Candida albicans (ATCC 10231) were used in this study as model systems. These laboratory strains were purchased from the American Type Culture Collection (ATCC) (Manassas, VA, USA). The cultures were routinely grown on 5% blood agar plates or Sabouraud Dextrose agar plates (Biolife Italiana S.r.l., Milan, Italy) and used freshly in the assays.
The antimicrobial properties of the metal complexes were determined by a previously established microdilution method in agreement with the Clinical and Laboratory Standard Institute (CLSI) guidelines. […] The metal complexes were two-fold serially diluted and tested in the range of 100–0.19 µM. Positive controls (in regular media), negative controls (only compounds), solvent controls (DMSO dilutions) and the reference drugs were included in the tests. The plate was incubated at 37 °C for 24 h, and the OD630nm was measured.

[5] = test system: pmaxGFP plasmid DNA; experiment: In vitro DNA cleavage/mobility shift assay (agarose gel electrophoresis); format: biochemical; conditions: for Plasmid DNA cleavage in presence of H2O2 (in words): 100 µM of sample, 200 ng plasmid DNA, 10 mM H2O2, 37 °C, 2 h
Experimental: The nuclease activity of the metal complexes was investigated by means of gel electrophoresis after incubating the reaction mixtures (100 µM of sample and 200 ng of plasmid DNA) at 37 °C for 2 h. […] Thus, the assays with the metal complexes were performed in the absence and presence of H2O2 at 10 mM to check whether the DNA cleavage and damage take place through a hydrolytic or an oxidative mechanism.
Studies of the interactions between the metal compounds and plasmid DNA were carried out by agarose gel electrophoresis. Thus, 200 ng of pmaxGFP plasmid, 3527 bps, (Lonza, Basel, Switzerland) were incubated with the metal compounds at 100 μM in the absence or presence of 10 mM of H2O2 in Tris-HCl buffer (NaCl 50 mM, Tris-HCl 5 mM, pH 7.20). The mixture was incubated at 37 °C for 2 h, then the reactions were quenched by adding 5 μL of the loading buffer solution and analyzed by 1% agarose gel electrophoresis.

[6] = test system: human red blood cells (hRBCs); experiment: Hemolytic activity assay; format: cell-based
Experimental: The hemolytic activity of the metal complexes was evaluated as the amount of hemoglobin released by the disruption of human red blood cells (hRBCs). Briefly, a suspension of hRBCs (4% w/v in PBS) was prepared from the peripheral blood of anonymous blood donors available for research purposes. […] Then, the supernatants were spectrophotometrically evaluated at OD405nm. Untreated hRBCs (in PBS) and hRBCs incubated with 1% Triton X-100 were employed as negative and positive controls, respectively. The hemolysis percentage was calculated as [OD405nm (sample) − OD405nm (negative control)]/[OD405nm (positive control) − OD405nm (negative control)] × 100. Minimal hemolytic concentrations (MHCs) were defined as the compound concentration causing 10% hemolysis.

[7] = ligand at 100 μM, mean values and standard deviations
[8] = compound at 100 μM, 1 h at 37 °C
[9] = mean values and 95% Confidence Interval, dose–response

COc1cc(S(=O)(=O)[O-])cc(/C=N/NC(N)=S)c1O.[Na+] [NaH2L4]
Microbial growth, S. aureus (Table S1) [1]: 99.0 ± 3.5
Cell proliferation, HEL 299 (Table S1) [2]: 85.6 ± 10.2
Microbial growth, E. coli (Table S1) [3]: 100.2 ± 1.0
Microbial growth, C. albicans (Table S1) [4, 7]: 95.6 ± 3.2

COc1cccc(/C=N/NC(N)=O)c1[O-].[Cl-].[Cu+2] [Compound 5, [Cu(HL3)Cl]∙0.5H2O∙0.5CH3OH]
Percentage values of microbial growth, S. aureus [1]: 83.6 ± 1.4%
Antimicrobial activity against S. aureus (in words) [1]: lack of antibacterial activity
Percentage values of cell viability, HEL 299 [2]: 20.3 ± 0.6%
Plasmid DNA cleavage in presence of H2O2 (in words) [5]: degrade plasmid DNA
Reduction of E. coli growth compared to the untreated cells ([3]; compound at 100 μM): 44.2%
Percentage values of microbial growth, E. coli ([3]; compound at 100 μM): 55.8 ± 0.5%
Antimicrobial activity against E. coli (in words) ([3]; up to 100 μM): lack of antibacterial activity
Percentage values of microbial growth, C. albicans ([4]; compound at 100 μM, 24 h): 77.8 ± 2.0%
Percentage values of hemolytic activity, hRBCs [6, 8]: <5%

COc1cc(S(=O)(=O)[O-])cc(/C=N/NC(N)=O)c1[O-].[Cl-].[Cu+2].[Na+] [Compound 10, [NaCu(HL6)Cl]]
Percentage values of microbial growth, S. aureus [1]: 97.8 ± 1.4%
Percentage values of cell viability, HEL 299 [2]: 63.5 ± 3.8%
Percentage values of microbial growth, E. coli ([3]; compound at 100 μM): 99.8 ± 1.8%
Percentage values of microbial growth, C. albicans ([4]; compound at 100 μM, 24 h): 71.6 ± 1.3%
Percentage values of hemolytic activity, hRBCs [6, 8]: <5%

CCNC(=S)N/N=C/c1cccc(OC)c1[O-].[Cl-].[Cu+2] [Compound 4]
IC50 [1, 9]: 3.5 µM
Antimicrobial activity against S. aureus (in words) [1]: completely inhibited; also recorded: good activity; also recorded: micromolar activity
Percentage values of cell viability, HEL 299 [2]: 9.1 ± 1.1%
CC50 [2, 9]: 1.4 µM
Plasmid DNA cleavage in presence of H2O2 (in words) [5]: extensive damage to the plasmid DNA
Percentage values of microbial growth, E. coli ([3]; compound at 100 μM): 110.5 ± 4.8%
Percentage values of microbial growth, C. albicans ([4]; compound at 100 μM, 24 h): 15.6 ± 5.5%
IC50 [4, 9]: 54.8 µM
Antimicrobial activity against C. albicans (in words) ([4]; up to 100 μM): slightly interfered
Percentage values of hemolytic activity, hRBCs [6, 8]: <5%

CCCCCCCC(=O)N/N=C/c1cc(S(=O)(=O)[O-])cc(OC)c1O.[Na+] [NaH2L7]
Microbial growth, S. aureus (Table S1) [1]: 102.2 ± 1.9
Cell proliferation, HEL 299 (Table S1) [2]: 87.6 ± 4.9
Microbial growth, E. coli (Table S1) [3]: 101.9 ± 1.3
Microbial growth, C. albicans (Table S1) [4, 7]: 83.2 ± 2.7

OC(Cn1cncn1)(Cn1cncn1)c1ccc(F)cc1F [FCZ, fluconazole, reference compound]
Microbial growth, C. albicans (Table S1) ([4]; fluconazole): 10.0 ± 0.6
Percentage values of microbial growth, C. albicans ([4]; fluconazole at 1.6 μM): 10.0 ± 0.6%

COc1cc(S(=O)(=O)[O-])cc(/C=N/NC(N)=O)c1O.[Na+] [NaH2L6]
Microbial growth, S. aureus (Table S1) [1]: 86.5 ± 1.9
Cell proliferation, HEL 299 (Table S1) [2]: 90.3 ± 0.8
Microbial growth, E. coli (Table S1) [3]: 97.1 ± 0.7
Microbial growth, C. albicans (Table S1) [4, 7]: 85.3 ± 1.6

CCCCCCCC(=O)N/N=C/c1cc(S(=O)(=O)[O-])cc(OC)c1[O-].[Cl-].[Cu+2].[Na+] [Compound 13, [NaCu(HL7)Cl]]
Percentage values of microbial growth, S. aureus [1]: 99.8 ± 3.6%
Percentage values of cell viability, HEL 299 [2]: 88.7 ± 0.9%
Plasmid DNA cleavage in presence of H2O2 (in words) [5]: only exception
Percentage values of microbial growth, E. coli ([3]; compound at 100 μM): 105.2 ± 2.0%
Percentage values of microbial growth, C. albicans ([4]; compound at 100 μM, 24 h): 81.7 ± 5.4%
Percentage values of hemolytic activity, hRBCs [6, 8]: <5%

CCNC(=S)N/N=C/c1cc(S(=O)(=O)[O-])cc(OC)c1O.[Na+] [NaH2L5]
Microbial growth, S. aureus (Table S1) [1]: 98.4 ± 3.0
Cell proliferation, HEL 299 (Table S1) [2]: 90.0 ± 4.9
Microbial growth, E. coli (Table S1) [3]: 107.4 ± 0.9
Microbial growth, C. albicans (Table S1) [4, 7]: 95.6 ± 7.5

COc1cc(S(=O)(=O)[O-])cc(/C=N/NC(N)=S)c1[O-].[Cl-].[Cu+2].[Na+] [Compound 8]
Percentage values of microbial growth, S. aureus [1]: 106.3 ± 1.6%
Percentage values of cell viability, HEL 299 [2]: 90.4 ± 0.6%
Percentage values of microbial growth, E. coli ([3]; compound at 100 μM): 104.1 ± 9.3%
Percentage values of microbial growth, C. albicans ([4]; compound at 100 μM, 24 h): 89.9 ± 5.3%
Percentage values of hemolytic activity, hRBCs [6, 8]: <5%

Triton X-100 [reference compound]
Percentage values of hemolytic activity, hRBCs [6]: 100 ± 2.6%

CCNC(=S)N/N=C/c1cccc(OC)c1O [Compound H2L2]
Microbial growth, S. aureus (Table S1) [1]: 96.8 ± 3.5
Cell proliferation, HEL 299 (Table S1) [2]: 97.2 ± 13.2
Microbial growth, E. coli (Table S1) [3]: 92.8 ± 3.1
Microbial growth, C. albicans (Table S1) [4, 7]: 83.3 ± 14.4

CCNC(=S)N/N=C/c1cc(S(=O)(=O)[O-])cc(OC)c1[O-].[Cl-].[Cu+2].[Na+] [Compound 9]
Percentage values of microbial growth, S. aureus [1]: 104.8 ± 0.7%
Percentage values of cell viability, HEL 299 [2]: 85.8 ± 1.7%
Percentage values of microbial growth, E. coli ([3]; compound at 100 μM): 96.6 ± 1.1%
Percentage values of microbial growth, C. albicans ([4]; compound at 100 μM, 24 h): 91.4 ± 2.5%
Percentage values of hemolytic activity, hRBCs [6, 8]: <5%

N.N.[Cl][Pt][Cl] [CP, cisplatin, reference compound]
Binding interaction with plasmid DNA, electrophoresis mobility (in words) ([5]; cisplatin at 500, 100 and 50, 37°C for 2 h, pmaxGFP): cause a shift of the electrophoresis mobility
